Experimental data as given in ChEMBL document CHEMBL1147709, “Arylanthranilodinitriles: a new biaryl class of antileishmanial agents” (2006).

How the values were obtained:
Format in all cases: functional
[1] = test system: Leishmania donovani; experiment: Antileishmanial activity against Leishmania donovani promastigotes at 8 ug/ml
[2] = test system: Leishmania donovani; experiment: Antileishmanial activity against Leishmania donovani promastigotes at 4 ug/ml
[3] = test system: Leishmania donovani; experiment: Antileishmanial activity against Leishmania donovani amastigotes at 20 ug/ml
[4] = test system: Leishmania donovani; experiment: Antileishmanial activity against Leishmania donovani promastigotes at 2 ug/ml

SMILES	inhibition at 8 µg/mL [1] [%]	inhibition at 4 µg/mL [2] [%]	inhibition at 20 µg/mL [3] [%]	inhibition at 2 µg/mL [4] [%]
COc1ccc(-c2c(C)c(C#N)c(N)c(C#N)c2SC)cc1OC	69	60	53	
CSc1c(C#N)c(N)c(C#N)c(C)c1-c1ccc(F)cc1	65	43	62	
CSc1c(C)c(-c2ccccc2)c(C#N)c(N)c1C#N	48	25	23	
COc1ccc(-c2c(C)c(SC)c(C#N)c(N)c2C#N)cc1	53	31	25	
COc1ccc(-c2c(C)c(C#N)c(N)c(C#N)c2SC)c(OC)c1	59	36	56	
CSc1c(C#N)c(N)c(C#N)c(C)c1-c1ccc(C(F)(F)F)cc1	83	67	70	
N=C(N)c1ccc(OCCCCCOc2ccc(C(=N)N)cc2)cc1 [PENTAMIDINE]			48	71
CSc1c(C#N)c(N)c(C#N)c(C)c1-c1ccccc1F	60	37	61	
CSc1c(C)c(-c2ccc(Cl)cc2)c(C#N)c(N)c1C#N	50	46	10	
